Target: Histamine H4 receptor (Rattus norvegicus, UniProt Q91ZY1)
Experiment: Binding affinity to rat histamine H4 receptor

Histamine H4 receptor (Rattus norvegicus, UniProt Q91ZY1), sequence (Q91ZY1 whole entry): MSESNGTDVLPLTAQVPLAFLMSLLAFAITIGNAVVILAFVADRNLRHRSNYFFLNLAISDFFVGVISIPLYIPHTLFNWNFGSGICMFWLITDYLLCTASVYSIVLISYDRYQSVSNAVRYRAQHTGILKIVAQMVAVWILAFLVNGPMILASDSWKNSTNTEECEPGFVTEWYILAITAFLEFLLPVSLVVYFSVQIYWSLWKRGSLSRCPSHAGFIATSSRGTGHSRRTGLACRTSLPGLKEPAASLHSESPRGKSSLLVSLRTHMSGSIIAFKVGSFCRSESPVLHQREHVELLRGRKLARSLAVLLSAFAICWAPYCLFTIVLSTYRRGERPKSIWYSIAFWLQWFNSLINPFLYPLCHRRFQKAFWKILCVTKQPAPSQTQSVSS

Ki [nM] | SMILES
15.8 | CN1CCN(c2nc(NCc3cccs3)c3cc(Cl)ccc3n2)CC1
24.5 | CN1CCN(c2nc(NCc3ccoc3)c3cc(Cl)ccc3n2)CC1

Target: Histamine H1 receptor (Homo sapiens, UniProt P35367)
Experiment: Displacement of [3H]mepyramine from human histamine H1 receptor expressed in NIH3T3 cells
Format: cell-based

Histamine H1 receptor, sequence (P35367 whole entry): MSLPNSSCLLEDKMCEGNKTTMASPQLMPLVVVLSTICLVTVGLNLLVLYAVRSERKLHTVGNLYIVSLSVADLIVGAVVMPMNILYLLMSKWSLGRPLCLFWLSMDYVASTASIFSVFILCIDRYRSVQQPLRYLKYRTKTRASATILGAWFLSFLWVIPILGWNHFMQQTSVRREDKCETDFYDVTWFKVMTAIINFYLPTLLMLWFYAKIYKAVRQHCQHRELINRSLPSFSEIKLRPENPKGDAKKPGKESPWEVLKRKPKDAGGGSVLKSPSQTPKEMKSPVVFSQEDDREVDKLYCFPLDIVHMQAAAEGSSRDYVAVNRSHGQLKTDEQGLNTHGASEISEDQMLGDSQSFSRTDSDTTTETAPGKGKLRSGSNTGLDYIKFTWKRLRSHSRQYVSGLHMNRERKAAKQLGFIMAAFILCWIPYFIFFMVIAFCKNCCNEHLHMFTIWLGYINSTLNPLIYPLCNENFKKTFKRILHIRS

Ki [nM] | SMILES
97.7 | CN1CCN(c2nc(NCc3ccoc3)c3cc(Cl)ccc3n2)CC1

Target: T1, Histamine H4 receptor (Homo sapiens, UniProt Q9H3N8)
Experiment: Inverse agonist activity at human histamine H4 receptor expressed in HEK293T cells by CRE-beta-galactosidase assay
Format: functional, cell-based, HEK-293T

IC50 [nM] | SMILES
145 | CN1CCN(c2nc(NCc3ccoc3)c3cc(Cl)ccc3n2)CC1

Target: T1, Histamine H4 receptor
Experiment: Displacement of [3H]histamine from human histamine H4 receptor expressed in HEK cells
Format: cell-based, HEK293

SMILES | Ki [nM]
CN1CCN(c2nc(NCc3ccccc3)c3ccccc3n2)CC1 | 1070
CNc1nc(N2CC[C@H](NC)C2)nc2ccc(Cl)cc12 | > 1000
CNc1nc(N2CCCC2CN2CCN(C)CC2)nc2ccc(Cl)cc12 (configuration not stated) | > 1000
CN1CCN(c2nc(NCc3ccco3)c3ccccc3n2)CC1 | 603
CNc1nc(N2CC[C@H](N)C2)nc2ccc(Cl)cc12 | > 1000
CNc1nc(N2CCC3(CCN(C)CC3)CC2)nc2ccc(Cl)cc12 | > 1000
CNc1nc(N2CCC3(CCN(C)C3)C2)nc2ccc(Cl)cc12 (configuration not stated) | > 1000
CNc1nc(N2CCN3CCC[C@H]3C2)nc2ccc(Cl)cc12 | 155
CNc1nc(N2CC3CCCNC3C2)nc2ccc(Cl)cc12 (configuration not stated) | > 1000
CNc1nc(N2CCN(C)CC2C)nc2ccc(Cl)cc12 (configuration not stated) | > 1000
CNc1nc(N2CC(C)N(C)C(C)C2)nc2ccc(Cl)cc12 (configuration not stated) | > 1000
CNc1nc(N2CC[C@@H](N)C2)nc2ccc(Cl)cc12 | > 1000
CNc1nc(NCCC2CCN(C)C2)nc2ccc(Cl)cc12 (configuration not stated) | > 1000
CNc1nc(NCC2CCN(C)CC2)nc2ccc(Cl)cc12 | > 1000
CN1CCN(c2nc(O)c3cc(Cl)ccc3n2)CC1 | 15100
CN1CCN(c2nc(Oc3ccccc3)c3ccccc3n2)CC1 | 2820

SMILES | Ki [nM]
CN1CCN(c2nc(OCc3ccccc3)c3ccccc3n2)CC1 | 4070
CN1CCN(c2nc(N)c3cc(Cl)ccc3n2)CC1 | 105
CN1CCN(c2nc(N)c3ccccc3n2)CC1 | 2140
CNc1nc(N2CCN(C)CC2)nc2cccc(C)c12 | 692
CN1CCN(c2nc(N(C)C)c3cc(Cl)ccc3n2)CC1 | 617
CN1CCN(c2nc(NCC3CCCCC3)c3cc(Cl)ccc3n2)CC1 | 589
CNc1nc(N2CCN(C)CC2)nc2cc(Cl)ccc12 | 955
CN1CCN(c2nc(NCCO)c3cc(Cl)ccc3n2)CC1 | 575
CC(C)Nc1nc(N2CCN(C)CC2)nc2ccc(Cl)cc12 | 759
CNc1nc(N2C[C@H]3CNC[C@H]3C2)nc2ccc(Cl)cc12 | > 1000
CCOC(=O)CNc1nc(N2CCN(C)CC2)nc2ccc(Cl)cc12 | 955
CNc1nc(N2CCCN(C)CC2)nc2ccc(Cl)cc12 | > 1000
CNc1nc(NCC2CCN(C)C2)nc2ccc(Cl)cc12 (configuration not stated) | > 1000
CNc1nc(N2CCN3CCCC3C2)nc2ccc(Cl)cc12 (configuration not stated) | 141
CN1CCN(c2nc(Nc3ccccc3)c3ccccc3n2)CC1 | 8510
CN1CCN(c2nc(NCCc3ccccc3)c3ccccc3n2)CC1 | 1480

Results, then the compound that gave them:

Ki [nM] | SMILES
129 | CN1CCN(c2nc(NCc3ccc(C#N)cc3)c3cc(Cl)ccc3n2)CC1
60.3 | CN1CCN(c2nc(NCCc3cccs3)c3cc(Cl)ccc3n2)CC1
135 | Cc1ccc(CNc2nc(N3CCN(C)CC3)nc3ccc(Cl)cc23)o1
38.9 | Cc1csc(CNc2nc(N3CCN(C)CC3)nc3ccc(Cl)cc23)c1
372 | Cc1noc(CNc2nc(N3CCN(C)CC3)nc3ccc(Cl)cc23)n1
89.1 | CN1CCN(c2nc(NCc3ccco3)c3cc(Cl)ccc3n2)CC1
105 | CN1CCN(c2nc(NCc3nccs3)c3cc(Cl)ccc3n2)CC1
224 | CN1CCN(c2nc(NCc3ccco3)c3cc(F)ccc3n2)CC1
186 | Cc1cc(Cl)cc2c(NCc3ccco3)nc(N3CCN(C)CC3)nc12
26.9 | CN1CCN(c2nc(NCc3ccoc3)c3cc(Cl)ccc3n2)CC1
107 | CN1CCN(c2nc(NCc3cncs3)c3cc(Cl)ccc3n2)CC1
70.8 | CNc1nc(N2CCN(C)CC2)nc2ccc(Cl)cc12
105 | CN1CCN(c2nc(NCc3ccc(F)cc3)c3cc(Cl)ccc3n2)CC1
562 | CN1CCN(c2nc(NCc3ccc(N)cc3)c3cc(Cl)ccc3n2)CC1
363 | COc1ccc(CNc2nc(N3CCN(C)CC3)nc3ccc(Cl)cc23)cc1
257 | CN1CCN(c2nc(NCc3ccccc3)c3cc(Cl)ccc3n2)CC1
240 | CN1CCN(c2nc(NCCc3ccccc3)c3cc(Cl)ccc3n2)CC1
35.5 | CN1CCN(c2nc(NCc3ccsc3)c3cc(Cl)ccc3n2)CC1
33.9 | Cc1ccsc1CNc1nc(N2CCN(C)CC2)nc2ccc(Cl)cc12
269 | CN1CCN(c2nc(NCc3cc4ccccc4s3)c3cc(Cl)ccc3n2)CC1
269 | CN1CCN(c2nc3ccc(Cl)cc3nc2OCc2ccccc2)CC1

Reference: ChEMBL document CHEMBL1151749, “Discovery of quinazolines as histamine H4 receptor inverse agonists using a scaffold hopping approach” (J Med Chem, 2008)
